Experimental data from PubChem BioAssay (NCI).
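A five-concentration, 48-hour dose response in 96-well plates underlies each endpoint, interpolated linearly between surrounding concentrations. Abbreviation: GI50, concentration required for 50% inhibition of growth. The concentration for full growth arrest is given as TGI.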

Legend:
Test in all cases: DTP human tumour cell line panel, 48 h
[1] = tested on: 786-0 renal
[2] = tested on: A498 renal
[3] = tested on: A549 NSCLC
[4] = tested on: ACHN renal
[5] = tested on: BT-549 breast
[6] = tested on: CAKI-1 renal
[7] = tested on: CCRF-CEM leukemia
[8] = tested on: COLO 205 colon
[9] = tested on: DU-145 prostate
[10] = tested on: EKVX NSCLC
[11] = tested on: HCC-2998 colon
[12] = tested on: HCT-116 colon
[13] = tested on: HCT-15 colon
[14] = tested on: HL-60(TB) leukemia
[15] = tested on: HOP-62 NSCLC
[16] = tested on: HOP-92 NSCLC
[17] = tested on: HS 578T breast
[18] = tested on: HT29 colon
[19] = tested on: IGROV1 ovarian
[20] = tested on: K-562 leukemia
[21] = tested on: KM12 colon
[22] = tested on: LOX IMVI melanoma
[23] = tested on: M14 melanoma
[24] = tested on: MALME-3M melanoma
[25] = tested on: MCF7 breast
[26] = tested on: MDA-MB-435
[27] = tested on: MDA-MB-468 breast
[28] = tested on: MOLT-4 leukemia
[29] = tested on: NCI-H226 lung
[30] = tested on: NCI-H23 lung
[31] = tested on: NCI-H460 lung
[32] = tested on: NCI-H522 lung
[33] = tested on: NCI/ADR-RES ovarian
[34] = tested on: OVCAR-3 ovarian
[35] = tested on: OVCAR-4 ovarian
[36] = tested on: OVCAR-5 ovarian
[37] = tested on: OVCAR-8 ovarian
[38] = tested on: PC-3 prostate
[39] = tested on: RPMI-8226 leukemia
[40] = tested on: RXF 393 renal
[41] = tested on: SF-268 CNS
[42] = tested on: SF-295 CNS
[43] = tested on: SF-539 CNS
[44] = tested on: SK-MEL-28 melanoma
[45] = tested on: SK-MEL-5 melanoma
[46] = tested on: SK-OV-3 ovarian
[47] = tested on: SN12C renal
[48] = tested on: SNB-19 CNS
[49] = tested on: SR leukemia
[50] = tested on: SW-620 colon
[51] = tested on: T-47D breast
[52] = tested on: TK-10 renal
[53] = tested on: U251 CNS
[54] = tested on: UACC-257 melanoma
[55] = tested on: UACC-62 melanoma

CC[C@]12C=CCN3CC[C@@]4(c5ccc(OC)cc5N(C)[C@H]4[C@@](O)(C(=O)OC)[C@@H]1OC(=O)CCCC[P+](c1ccc(F)cc1)(c1ccc(F)cc1)c1ccc(F)cc1)[C@@H]32
GI50 [1]: 34.1 µM
TGI [1]: > 100 µM
GI50 [2]: > 100 µM
TGI [2]: > 100 µM
GI50 [3]: 33.8 µM
TGI [3]: > 100 µM
GI50 [4]: > 100 µM
TGI [4]: > 100 µM
GI50 [5]: 12.9 µM
TGI [5]: 27.1 µM
GI50 [6]: > 100 µM
TGI [6]: > 100 µM
GI50 [7]: 13.6 µM
TGI [7]: 30.3 µM
GI50 [8]: 4.63 µM
TGI [8]: 16.4 µM
GI50 [9]: 35.4 µM
TGI [9]: > 100 µM
GI50 [10]: 21 µM
TGI [10]: > 100 µM
GI50 [11]: 12.5 µM
TGI [11]: 25.5 µM
GI50 [12]: 25.9 µM
TGI [12]: > 100 µM
GI50 [13]: > 100 µM
TGI [13]: > 100 µM
GI50 [14]: 2.11 µM
TGI [14]: 13.2 µM
GI50 [15]: 25.5 µM
TGI [15]: 73.4 µM
GI50 [16]: 6.32 µM
TGI [16]: 23.5 µM
GI50 [17]: 16.9 µM
TGI [17]: 37.5 µM
GI50 [18]: 15.4 µM
TGI [18]: 38.8 µM
GI50 [19]: 10.8 µM
TGI [19]: 24.3 µM
GI50 [20]: 11.3 µM
TGI [20]: 38.7 µM
GI50 [21]: 13.4 µM
TGI [21]: 27.7 µM
GI50 [22]: 16.8 µM
TGI [22]: 30.8 µM
GI50 [23]: 14.7 µM
TGI [23]: 30 µM
GI50 [24]: 13.5 µM
TGI [24]: 27.3 µM
GI50 [25]: 11.5 µM
TGI [25]: 24.5 µM
GI50 [26]: 12.9 µM
TGI [26]: 28.4 µM
GI50 [27]: 2.61 µM
TGI [27]: 11.1 µM
GI50 [28]: 14.7 µM
TGI [28]: 32.6 µM
GI50 [29]: 27.3 µM
TGI [29]: > 100 µM
GI50 [30]: 20.1 µM
TGI [30]: 53.5 µM
GI50 [31]: 29.4 µM
TGI [31]: > 100 µM
GI50 [32]: 5.44 µM
TGI [32]: 20.2 µM
GI50 [33]: > 100 µM
TGI [33]: > 100 µM
GI50 [34]: 9.3 µM
TGI [34]: 23.3 µM
GI50 [35]: 25.1 µM
TGI [35]: > 100 µM
GI50 [36]: 29.1 µM
TGI [36]: > 100 µM
GI50 [37]: 29.4 µM
TGI [37]: > 100 µM
GI50 [38]: 16.4 µM
TGI [38]: 56.7 µM
GI50 [39]: 2.97 µM
TGI [39]: 14.9 µM
GI50 [40]: 13.3 µM
TGI [40]: 31.6 µM
GI50 [41]: 17.6 µM
TGI [41]: 38.3 µM
GI50 [42]: 30.6 µM
TGI [42]: > 100 µM
GI50 [43]: 21.9 µM
TGI [43]: 62.4 µM
GI50 [44]: 8.28 µM
TGI [44]: 20.7 µM
GI50 [45]: 17.1 µM
TGI [45]: 30.8 µM
GI50 [46]: 23.5 µM
TGI [46]: 66.5 µM
GI50 [47]: 28.6 µM
TGI [47]: > 100 µM
GI50 [48]: 13 µM
TGI [48]: 26.7 µM
GI50 [49]: 14.5 µM
TGI [49]: 31.9 µM
GI50 [50]: 16.5 µM
TGI [50]: 37.8 µM
GI50 [51]: 11.5 µM
TGI [51]: 43.2 µM
GI50 [52]: 21.2 µM
TGI [52]: 52.6 µM
GI50 [53]: 10.7 µM
TGI [53]: 23.3 µM
GI50 [54]: 5.58 µM
TGI [54]: 19.2 µM
GI50 [55]: 11.3 µM
TGI [55]: 23.5 µM
